Assays:
Assay type in all cases: cell-based, human
MMP-2 = experiment: Zymography of MMP-2 in HaCaT cells; conditions: relative to 0 = 1.00
Description: The proteolytic activities of MMPs from HaCaT and HDF cells were measured essentially as described elsewhere (Circ Res, 1999; 85:906-911). The cells were seeded for 24 h and then treated with various concentrations of astragalosides for another 48 h. The conditioned culture medium was then centrifuged, 2-fold concentrated, and saved for assay of collagens and MMPs expressed into the culture medium. The cells were then lysed in lysis buffer (1% Triton, 50 mM Tris-Cl, pH 7.4, 180 mM NaCl, 1 mM EDTA). Protein concentration of the samples was measured using the bicinchoninic acid (BCA) protein assay kit as described. Samples of concentrated conditioned medium and cell lysates were mixed with non-reducing electrophoresis loading buffer and subjected to electrophoresis under non-reducing conditions, which was carried out on a 10% SDS-PAGE co-polymerized with 2 mg/mL gelatin or casein (Sigma, St. Louis, Mo. USA). For zymographic analysis of pro-MMP-2 and activated MMP-2, the total 20 μg of culture medium were used for electrophoresis. Following electrophoresis, renaturation of the proteins was achieved by incubating the gels in 25 g/L Triton X-100 at room temperature for 2×10 min. Subsequently the gels were incubated in 50 mM Tris-HCl, pH 7.5 containing 0.2 M NaCl, 0.02% Brij35 and 10 mM CaCl2 at 37° C. for 18 h. After staining the gels with Coomassie Brilliant Blue R-250 and destaining, zones of proteolytic activities became visible as transparent bands in the stained gel. In order to obtain higher sensitivity, the gels were further destained in a solution of 1% Triton x-100 (1 to 2 h). This procedure increased the signal-to-noise ratio, allowing the visualization of faint gelatinase bands at 92, 125 and greater than 200 kDa. Zymograms were read using a Molecular Dynamics (Sunnyvale, Calif., USA) computing laser densitometer with Image Quant software.
(§1) Results shown in Tables 6A and 6B represent the quantitated data from zymography analysis of MMP-2 protein in HaCaT cells and qRT-PCR for MMP-1 in HDF cells. The concentrations used were 0, 0.01. 0.1, 1 μM (if not indicated otherwise) for pure compounds; and were 0, 1, 10, 40 μg/mL for crude extract (if not indicated otherwise). The cells were treated with the indicated compounds for 24 h before harvested for analysis of Pro-MMP-2 or activated MMP-2 in whole cell extract. Fifty micrograms of the cell extract samples were used for electrophoresis.

HaCaT cells = experiment: Proline uptake assay in HaCaT cells; conditions: 0.1 μM; for Uptake rate (proline): 48 h treatment; for Percentage (%) of control proline uptake: control = 100.00
Description: The proline uptake assay was carried out as described (Biochim Biophys Acta. 1104:283-292, 1992). Briefly, HaCaT cells were seeded into a 24-well plate at a density of 3×10^4 cells/well and cultured for 24 h. The cells were then treated in the absence (solvent control) or presence of various concentrations of astragalosides or crude extracts from Astragalus membranaceus for another 48 h. The treated cells were then washed once with PBS and incubated in amino acid free medium (AAFM) for another 30 min. The treated cells were them replaced with fresh AAFM containing 50 μg/ml of ascorbate and total of 0.5 mM of L-proline containing 1 μCi [^3H] Proline (American Radiolabelled Chemicals Inc, ARC, St. Louis, Mo., USA). At designated time interval, the cells were washed with AAFM containing cold proline and then lysed in 200 μL of 2% SDS. Cell lysates were centrifuged at 15000 g for 15 min. Intracellular proline uptaken by the cells was determined by transferring 10 μL of the cell lysate to filter-bottomed UniFilter plates (Perkim-Elmer) and counted. Protein concentration of the samples were measured using the BCA protein assay kit as described above. Proline accumulated in the cells was calculated and normalized to protein concentration and uptake rate was expressed as nmole of L-proline per minute per milligram of cell protein ([…]).

hyaluronic acid (HA) = experiment: HA measurement in culture medium of HaCaT cells (HA-ELISA); conditions: relative to 0 = 1.00
Description: HA measurement was carried out as described (BBRC, 2004, 316: 348-355). Briefly, HaCaT or HDF cells were seeded and incubated in 24-well plates to confluency. Immediately before experiments, cells were washed twice with serum-free medium to completely remove HA accumulated during cell growth. The cells were then cultured with or without different compounds in 0.5 ml serum-free medium for 48 h. At the indicated time, aliquots of medium were removed, centrifuged at 15000 g for 5 min, and supernatants were analyzed for HA using an enzyme-linked immunosorbent assay (ELISA) kit (Echelon Bioscience, Salt Lake, Utah).
Results shown represent the fold of induction of the astragalosides on hyaluronic acid expression in HaCaT cells. The concentrations of astragalosides used were 0, 1, or 10 μM (unless indicated otherwise) for astragaloside pure compounds; were 0, 0.5, 1, 2.5, 5, 10, 40 μg/mL for the butanol fraction (unless indicated otherwise); and were 0, 1, 10, 40 μg/mL for the water insoluble fraction (unless indicated otherwise). The cells were treated with the indicated compounds for 24 h before harvested for analysis of secreted hyaluronic acid in culture medium using HA-ELISA kit.

MMP-1 = experiment: Quantitative analysis of MMP-1 transcripts in HDF cells (qRT-PCR); conditions: 0.1 μM, MMP-1 mRNA relative to 0 = 1.00
Description: Relative levels of MMP-1 expression in HDF cells were determined by qRT-PCR. Preparation of total RNA and cDNA were carried out as described in previous sections. qRT-PCR was performed using the Applied Biosystem 7300 system and pre-developed Taqman Gene Expression Assays (Applied Biosystems, Foster City, Calif., USA). The reaction was performed as described in previous sections except that primer mix for human MMP-1 (assay ID HS00233958_m1, Applied Biosystems) and GAPDH (assay ID Hs99999905_m1, Applied Biosystems) were used.
as §1

## CC(=O)O[C@H]1[C@H](O[C@H]2CC[C@]34C[C@]35CC[C@]3(C)[C@@H]([C@@]6(C)CC[C@@H](C(C)(C)O)O6)[C@@H](O)C[C@@]3(C)[C@@H]5C[C@H](O[C@@H]3O[C@H](CO)[C@@H](O)[C@H](O)[C@H]3O)[C@H]4C2(C)C)OC[C@@H](O)[C@@H]1O [AS2, astragaloside II]
MMP-2; 0.01 μM
  ProMMP-2/MMP2 in medium: 0.89
MMP-2; 0.1 μM
  ProMMP-2/MMP2 in medium: 0.89
MMP-2; 1 μM
  ProMMP-2/MMP2 in medium: 0.67
HaCaT cells
  Uptake rate (proline): 0.9770 ± 0.1119 pmol/mg/min
  Percentage (%) of control proline uptake: 141.52%
Hyaluronic acid (HA); 1 μM
  HA in medium (fold of induction): 1.98
Hyaluronic acid (HA); 10 μM
  HA in medium (fold of induction): 1.31
MMP-1
  MMP-1 Q-PCR: 0.25

## CC(C)(O)[C@@H]1CC[C@](C)([C@H]2[C@@H](O)C[C@@]3(C)[C@@H]4C[C@H](O)[C@H]5C(C)(C)[C@@H](O[C@@H]6OC[C@@H](O)[C@H](O)[C@H]6O[C@@H]6O[C@H](CO)[C@@H](O)[C@H](O)[C@H]6O)CC[C@@]56C[C@@]46CC[C@]23C)O1 [AS3, astragaloside III]
MMP-2; 0.01 μM
  ProMMP-2/MMP2 in medium: 0.76
MMP-2; 0.1 μM
  ProMMP-2/MMP2 in medium: 0.57
MMP-2; 1 μM
  ProMMP-2/MMP2 in medium: 0.81
HaCaT cells
  Uptake rate (proline): 0.7213 ± 0.0090 pmol/mg/min
  Percentage (%) of control proline uptake: 104.48%

## CC(C)(O)[C@@H]1CC[C@](C)([C@H]2[C@@H](O)C[C@@]3(C)[C@@H]4C[C@H](O[C@@H]5O[C@H](CO)[C@@H](O)[C@H](O)[C@H]5O)[C@H]5C(C)(C)[C@@H](O[C@@H]6OC[C@@H](O)[C@H](O)[C@H]6O)CC[C@@]56C[C@@]46CC[C@]23C)O1 [AS4, astragaloside IV]
HaCaT cells
  Uptake rate (proline): 0.7628 ± 0.1015 pmol/mg/min
  Percentage (%) of control proline uptake: 110.50%
Hyaluronic acid (HA); 1 μM
  HA in medium (fold of induction): 2.27
Hyaluronic acid (HA); 10 μM
  HA in medium (fold of induction): 1.31

## CC(C)(O)[C@@H]1CC[C@](C)([C@H]2[C@@H](O)C[C@@]3(C)[C@@H]4C[C@H](O[C@@H]5O[C@H](CO)[C@@H](O)[C@H](O)[C@H]5O)[C@H]5C(C)(C)[C@@H](O[C@@H]6OC[C@@H](O)[C@H](O)[C@H]6O[C@@H]6O[C@H](CO)[C@@H](O)[C@H](O)[C@H]6O)CC[C@@]56C[C@@]46CC[C@]23C)O1 [AS6, astragaloside VI]
MMP-2; 0.01 μM
  ProMMP-2/MMP2 in medium: 0.89
MMP-2; 0.1 μM
  ProMMP-2/MMP2 in medium: 0.67
MMP-2; 1 μM
  ProMMP-2/MMP2 in medium: 0.74
Hyaluronic acid (HA); 1 μM
  HA in medium (fold of induction): 1.13
Hyaluronic acid (HA); 10 μM
  HA in medium (fold of induction): 1.38

## CC(=O)O[C@H]1[C@H](O[C@H]2CC[C@]34C[C@]35CC[C@]3(C)[C@@H]([C@@]6(C)CC[C@@H](C(C)(C)O)O6)[C@@H](O)C[C@@]3(C)[C@@H]5C[C@H](O[C@@H]3O[C@H](CO)[C@@H](O)[C@H](O)[C@H]3O)[C@H]4C2(C)C)OC[C@@H](OC(C)=O)[C@@H]1O [isoAS1, isoastragaloside I]
MMP-1
  MMP-1 Q-PCR: 0.6

## CC(=O)O[C@@H]1[C@@H](O)[C@H](O[C@H]2CC[C@]34C[C@]35CC[C@]3(C)[C@@H]([C@@]6(C)CC[C@@H](C(C)(C)O)O6)[C@@H](O)C[C@@]3(C)[C@@H]5C[C@H](O[C@@H]3O[C@H](CO)[C@@H](O)[C@H](O)[C@H]3O)[C@H]4C2(C)C)OC[C@H]1O [isoAS2, isoastragaloside II]
MMP-1
  MMP-1 Q-PCR: 0.71

## astragaloside I [AS1]
MMP-2; 0.01 μM
  ProMMP-2/MMP2 in medium: 0.57
MMP-2; 0.1 μM
  ProMMP-2/MMP2 in medium: 0.57
MMP-2; 1 μM
  ProMMP-2/MMP2 in medium: 0.86
HaCaT cells
  Uptake rate (proline): 0.8627 ± 0.0741 pmol/mg/min
  Percentage (%) of control proline uptake: 124.97%
Hyaluronic acid (HA); 1 μM
  HA in medium (fold of induction): 1.45
Hyaluronic acid (HA); 10 μM
  HA in medium (fold of induction): 1.36
MMP-1
  MMP-1 Q-PCR: 0.75

From patent US20080057010A1, “METHOD FOR SKIN CARE” (NULIV SCIENCE LTD., priority 2006, published 2008)
